Values joined by “and” are separate entries in the source; they are usually repeats but may differ in a detail not shown here. Identical values can stand only once.

A short description of data set [1]: Accelerated stability test for formulation (tablets). Particulars: conclusion from Tables 3 and 4. The data set is classed as physicochemical. As to the method:
(§1) An accelerated stability test for bulk drug was carried out directly from the crystal powder. An accelerated stability test for formulation was carried out on tablets.
Preparation process of formulation: form A of 2-tert-butyl-4-methoxyphenol (2-BHA) (form A of 2-BHA prepared in Example 4), microcrystalline cellulose, lactose and other auxiliary materials respectively were screened through 100 mesh, respectively for use. The prescription amount of form A of 2-tert-butyl-4-methoxyphenol, microcrystalline cellulose, lactose and other auxiliary materials were fully mixed according to the equal volume addition method. The above mixture was added to an aqueous solution of 2-3% polyvinylpyrrolidone under stirring, to obtain a soft material, which was screened through a 20-mesh sieve. The tablet weight regulator was adjusted to make the tablet weight being 250±10 mg, the hardness being 60-80 N, and then the tablet was compressed. After screening for dissolution, homogeneity and reproducibility and the like, the prescription was determined and 3 batches of samples were prepared.

Data set [2] is described as follows: Plasma concentration after intragastric administration in mice. It is filed as in vivo.
Data set [3] can be described thus: Pharmacokinetic evaluation of 2-BHA of form A in rats by intragastric administration.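 Also: plasma concentration in ng/mL.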 Particulars: 100 mg/kg intragastric, individual rats 1♂-6♀. The data set is classed as in vivo, SD rats. As to the method: SD rats, half male and half female, fasted overnight, 6 rats/group, were given 2-tert-butyl-4-methoxyphenol suspended in Tween 80 (2-BHA of form A prepared by Example 4) by intragastric administration, the dose being 100 mg/kg body weight. […]

Data set [4] can be described thus: Accelerated stability test for bulk drug. The data set is classed as physicochemical. The conditions noted are these: for Appearance / Content / Related substance: bulk drug, 40° C.±2° C., RH 75%±5%. How it is done: as §1
In data set [5] the test system is differentiation of monocytes into M2 macrophages. Particulars: by inhibiting production of ROS; Cell Research 2013, 23:898-914; cited from earlier work.
The test system of data set [6] is lung cancer in K-ras^LA2 model mice. The conditions noted are these: Cell Research 2013, 23:898-914; cited from earlier work.
Data set [7] is described as follows: Comparative study of antioxidant activity, 2-BHA vs 3-BHA. Particulars: ratio to 3-BHA. The text has this: (§2) However, the existing commercial BHA products are all mixtures of 2-tert-butyl-4-methoxyphenol (2-BHA) and 3-tert-butyl-4-methoxyphenol (3-BHA), with a content ratio of approximately 9:1-50:1. The inventors comparatively studied the antioxidant activities and macrophage polarization regulation activities of 2-tert-butyl-4-methoxyphenol and 3-tert-butyl-4-methoxyphenol. […] Therefore, the development of 2-tert-butyl-4-methoxyphenol as a medicine still needs to improve the purity.

For data set [8], the system named is M2 polarization of macrophages. The conditions noted are these: CN 201610037849.5; cited from earlier work.
The conditions of data set [9]: early studies, literature; cited from earlier work.
In data set [10] the test system is lung cancer and breast cancer. The conditions noted are these: mouse models with lung cancer and breast cancer; CN 201610037849.5; cited from earlier work.
Another data set relates to mice. The experiment in a line: Toxicology experiments in mice. It is filed as in vivo. As to the method: (§3) At the same time, it was found through drug metabolism experiments that the in vivo half-life of BHA was very short, only 30-60 minutes. […] Therefore, combining with the research results of literature on the metabolites of 2-tert-butyl-4-methoxyphenol (with DNA damaging effects, Food and Chemical Toxicology 1999, 37: 1027-1038), it can be inferred that 2-tert-butyl-4-methoxyphenol itself has an anti-tumor effect, and the interaction of its metabolite tert-butylhydroquinone (TBHQ) with DNA may be the cause of its side effects. BHA has the potential to be developed into a drug.

The next data set concerns macrophage polarization. Briefly: Comparative study of macrophage polarization regulation activity, 2-BHA vs 3-BHA. It is filed as cell-based. The conditions noted are these: ratio to 3-BHA.
From the text: as §2

The nature of data set [11]: Drug metabolism experiments (in vivo half-life). As to the method:
as §3

[12] abbreviates: 600 mg/kg administration in mice.
Setting [13] is: 1100 mg/kg administration in mice.

Turning to `COc1ccc(O)c(C(C)(C)C)c1` [2-BHA of form A, 2-tert-butyl-4-methoxyphenol], the “stability during the preparation process” value in [1] is recorded as “better stability”. The “correlation of maximum plasma concentration and AUC with the administration dose” value in [2] is listed as “better correlation with the administration dose”. Besides, the “individual differences in plasma concentration” value in data set [2] is “small individual differences in plasma concentration”. The plasma concentration in [3] (5 min after administration, female rats) is 80.026 ng/mL and 165.939 ng/mL and 77.996 ng/mL; in data set [3] (5 min after administration, male rats), 159.617 ng/mL and 125.112 ng/mL and 147.531 ng/mL; in data set [3] (30 min, female rats), 157.878 ng/mL and 371.466 ng/mL and 240.870 ng/mL; in data set [3] (30 min, male rats), 694.651 ng/mL and 489.006 ng/mL and 359.028 ng/mL; in data set [3] (1 h, female rats), 504.084 ng/mL and 603.120 ng/mL and 643.208 ng/mL; in data set [3] (1 h, male rats), 560.980 ng/mL and 570.039 ng/mL. Moreover, the plasma concentration was 687.296 ng/mL and 410.399 ng/mL and 199.206 ng/mL in [3] (2 h, female rats); 267.167 ng/mL and 267.234 ng/mL and 312.997 ng/mL in data set [3] (2 h, male rats); 283.840 ng/mL and 205.532 ng/mL and 146.191 ng/mL in data set [3] (4 h, female rats); 192.535 ng/mL and 63.401 ng/mL and 86.609 ng/mL in data set [3] (4 h, male rats); 78.447 ng/mL and 42.984 ng/mL and 121.700 ng/mL in data set [3] (8 h, female rats); 117.919 ng/mL and 27.328 ng/mL and 192.532 ng/mL in [3] (8 h, male rats). Further, the plasma concentration entry in data set [3] (24 h, BLLOQ = below the detection limit, female rats) was “BLLOQ”; in data set [3] (24 h, BLLOQ = below the detection limit, male rats), “BLLOQ”. In addition, in data set [3] (both sexes, SD, rat, plasma, oral, 100 mg/kg, 1 h), the concentration at 1 h came out at 881 ng/mL. The Appearance entry in data set [4] (0 month, listed as 20160808) is given as “white”; in [4] (0 month, listed as 20160904), “white”; in data set [4] (0 month, listed as 20160908), “white”; in [4] (1 month, listed as 20160808), “white”; in data set [4] (1 month, listed as 20160904), “white”; in data set [4] (1 month, listed as 20160908) it was “white”. In addition, the Appearance result in data set [4] (2 month, listed as 20160808) is “white”; in data set [4] (2 month, listed as 20160904), “white”; in data set [4] (2 month, listed as 20160908), “white”; in data set [4] (3 month, listed as 20160808), “white”; in data set [4] (3 month, listed as 20160904) it was “white”; in data set [4] (3 month, listed as 20160908), “white”. In addition, the Content in [4] (0 month, listed as 20160808) worked out at 99.5%; in data set [4] (0 month, listed as 20160904), 99.8%; in data set [4] (0 month, listed as 20160908), 99.6%; in [4] (1 month, listed as 20160808) it was 99.7%; in data set [4] (1 month, listed as 20160904), 99.7%; in data set [4] (1 month, listed as 20160908), 99.6%. Further, the Content is 99.4% in data set [4] (2 month, listed as 20160808); 99.3% in [4] (2 month, listed as 20160904); 99.5% in data set [4] (2 month, listed as 20160908); 99.5% in data set [4] (3 month, listed as 20160808); 99.3% in data set [4] (3 month, listed as 20160904); 99.6% in data set [4] (3 month, listed as 20160908). The Related substance in data set [4] (0 month, listed as 20160808) is listed as 0.34%; in data set [4] (0 month, listed as 20160904), 0.14%; in data set [4] (0 month, listed as 20160908) it was 0.34%; in [4] (1 month, listed as 20160808), 0.22%; in data set [4] (1 month, listed as 20160904), 0.21%; in [4] (1 month, listed as 20160908), 0.31%. Also, the Related substance in data set [4] (2 month, listed as 20160808) is given as 0.19%; in [4] (2 month, listed as 20160904) it was 0.39%; in data set [4] (2 month, listed as 20160908) it was 0.29%; in [4] (3 month, listed as 20160808) it was 0.35%; in data set [4] (3 month, listed as 20160904), 0.35%; in [4] (3 month, listed as 20160908), 0.25%. The “physical and chemical stability compared with commercially available BHA” value in data set [4] (fluidity, agglomeration, oxidation and colour change in the environment) was “better physical and chemical stability than commercially available BHA”.

For `COc1ccc(O)c(C(C)(C)C)c1` [2-tert-butyl-4-methoxyphenol], the Appearance entry in data set [4] (0 month) was “off-white”; in data set [4] (1 month) it was “light yellowish”; in [4] (2 month) it was “light yellowish +”; in data set [4] (3 month), “light yellowish red”. Besides, the Content in data set [4] (0 month) was 98.0%; in [4] (1 month) it was 95.1%; in [4] (2 month) it was 92.1%; in [4] (3 month), 90.2%. The Related substance in data set [4] (0 month) was found to be 1.8%; in data set [4] (1 month), 3.9%; in data set [4] (2 month) it was 8.8%; in data set [4] (3 month) it was 9.3%.

For the molecule `COc1cc(C(C)=O)ccc1O` [Apocynin], the “effect on differentiation of monocytes into M2 macrophages” value (shortened to “effect on differentiation”) in data set [5] was “inhibit the differentiation of monocytes into M2 macrophages”. For the same molecule, the “effect on occurrence of lung cancer” value in data set [6] is given as “inhibiting the occurrence of lung cancer”.

What is called half-life is the time needed for the level to fall by half in the phase considered. The low end stands for rapid decline, the high end for slow decline. In the case of `COc1ccc(O)c(C(C)(C)C)c1` [BHA, 2-tert-butyl-4-methoxyphenol], the “antioxidant capacity relative to 3-tert-butyl-4-methoxyphenol” value in [7] is reported as 2-3 times. In data set [5], the “effect on differentiation” value is reported as “inhibit the differentiation of monocytes into M2 macrophages”. Besides, the “effect on occurrence of lung cancer” value in data set [6] is recorded as “inhibiting the occurrence of lung cancer”. Besides, the “effect on M2 polarization of macrophages” value in data set [8] is given as “inhibiting the M2 polarization of macrophages”. The carcinogenic effects entry in data set [9] is given as “has carcinogenic effects”. For the same molecule, in data set [10], the anti-tumor effect result was “anti-tumor proliferation and metastasis effects”. For the same molecule, in the data set on mice (setting [12]), the “recovery from central effect” value is recorded as “recovered after half an hour” and the toxic effect seen result is “only part of the “hangover”-like central effect could be seen”. In the data set on mice (setting [13]), the lethality entry was “half of the mice were lethal” and the “time until toxic reaction symptoms disappeared in the surviving mice” value was in the range of 30 to 60 min. Moreover, the “toxic effect after long-term administration” value with mice (long-term low-dose administrations in mice for 2 years) is on record as “no toxic effect”. Also, the “macrophage polarization regulation activity relative to 3-tert-butyl-4-methoxyphenol” value in the data set with macrophage polarization is 5-100 times. Further, the half-life in [11] was in the range of 30 to 60 min.

On to `CC(=O)N[C@@H](CS)C(=O)O` [NAC], for which, in [5], the “effect on differentiation” value is reported as “inhibit the differentiation of monocytes into M2 macrophages”. Besides, in [6], the “effect on occurrence of lung cancer” value is listed as “inhibiting the occurrence of lung cancer”.

For the molecule `CC1(C)CCCC(C)(C)N1[O]` [TEMPO], in data set [5], the “effect on differentiation” value is reported as “inhibit the differentiation of monocytes into M2 macrophages”. Also, the “effect on occurrence of lung cancer” value in data set [6] is reported as “inhibiting the occurrence of lung cancer”.

The values above are taken from patent US11655201B2, “Method for preparing 2-tert-butyl-4-methoxyphenol and new crystal form thereof” (BIOMEDICAL ANALYSIS CENTER, ACADEMY OF MILITARY MEDICAL …, priority 2017, dated 2023).
